Measurements reported in patent US20220016080A1, “COMPOUNDS THAT SELECTIVELY AND EFFECTIVELY INHIBIT HAKAI-MEDIATED UBIQUITINATION, AS ANTI-CANCER DRUGS” (FUNDACIÓN PROFESOR NOVOA SANTOS, priority 2018, published 2022).

Key:
[1] = tested on: ubiquitination in 293T cells; test: Ubiquitination assay in 293T cells transfected with v-Src and HA-ubiquitin (Hakai not overexpressed); type: cell-based
Procedure: Six hours after transfection cells were treated with indicated concentrations of Hakin-1, Hakin-5 or the rest of the analogues tested for 36 h. Whole cell extracts were obtained in lysis buffer (20 mM Tris-HCl pH 7.5, 150 mM NaCl and 1% Triton X-100) containing 10 μg/ml leupeptin, 10 μg/ml aprotinin and 1 mM phenylmethanesulphonyl fluoride (PMSF), supplemented with 10 mM N-ethylmaleimide. Cells were harvested and subjected to western blotting using anti-HA antibody to detect ubiquitination.

[2] = tested on: normal epithelial MDCK cell line; test: MTT cell viability assay, MDCK; type: cell-based; settings: normal epithelial MDCK compared to Hakai-MDCK; 72 h
Procedure: (§1) For cytotoxicity assays, 1×10^4 cells were seeded per well into a 96-well plate. After 24 h cells were treated with the indicated inhibitors for 72 h and a MTT colorimetric cell viability assay was performed following manufacturer's instructions (Sigma Aldrich, St Louis, Mo.). Absorbance was measured at 570 and 630 nm using a Multiskan Plus Reader (Nanoquant Infinite M200 Tecan Trading AG, Switzerland). Dose-response curves were designed with Graph Pad Prism Software and the half-maximal inhibitory concentration (IC50) values were calculated. Represented data are the mean±SEM of at least three independent experiments with six replicates per condition.

[3] = tested on: Hakai-MDCK cell lines (clone 4 and clone 11); test: MTT cell viability assay, Hakai-MDCK; type: cell-based; settings: both clones of Hakai-MDCK compared to MDCK; 72 h
Procedure: as §1

[4] = tested on: Hakai-transformed MDCK cells; test: Phase-contrast cell phenotype, Hakai-MDCK; type: cell-based
Procedure: MDCK, HEK293T, HepG2, MCF7 and ACHN cells were cultured in Dulbecco's Modified Eagles Medium (DMEM). MDCK stably expressing Hakai cells (Hakai-MDCK) were previously reported and were growth in DMEM with G418 (800 μg/ml). […] LoVo and PC-3 cells were cultured in F-12K Medium (Kaighn's Modification of Ham's F-12 Medium) and HT-29 cells in McCoy's 5a Medium Modified. 5637 cells were cultured in RPMI medium. All culture media were supplemented with 1% penicillin/streptomycin and 10% of heat-inactivated fetal bovine serum (FBS) at 37° C. in a humidified incubator with 5% CO2. Cells were monthly tested for mycoplasma contamination and used only for 1-3 months after defrosted. LoVo and HT29 cells were authenticated with the StemElite ID system (Promega). For phase-contrast images, culture cells were photographed with a Nikon Eclipse-TI microscope.

[5] = tested on: LoVo cells; test: Western blotting of EMT markers, LoVo; type: cell-based; settings: 48 h
Procedure: (§2) For western blot analysis, cells were treated with the indicated inhibitors for 48 h and the whole cell extracts were obtained as described previously. Twenty micrograms of lysates were resolved on a 10% polyacrilamide SDS-PAGE followed by western blot analysis performed as previously described. For immunofluorescence assays cells were grown for 24 h on glass coverslips and treated with the indicated inhibitors for 48 h. Cells were fixed with 4% PFA for 15 min, permeabilized with 0.5% […] and incubated with E-cadherin antibody for 2 h. Coverslips were incubated with fluorescein-tagged secondary antibody (Dakopatts, Sweden) for […]. Finally coverslips were mounted with ProLong Gold antifade reagent (LifeTech, UK) and images were taken in epifluorescence microscope (Olympus) using 40× objective.

[6] = tested on: HT-29 cells; test: Immunofluorescence of E-cadherin, HT-29; type: cell-based; settings: 48 h
Procedure: as §2

[7] = tested on: breast cancer MCF7 cell; test: BrdU proliferation assay, MCF7; type: cell-based, human; settings: 48 h
Procedure: (§3) For BrdU assays, 1×10^4 of indicated cells were plated per well into a 96-well plate. After 24 h, cells were treated with the indicated inhibitors for 48 h. Three independent experiments were plated with six replicates per each condition. Cells were treated with […] BrdU for 2 h. BrdU incorporation into newly synthesized DNA was measured using a cell proliferation colorimetric immunoassay kit according to the manufacturer's instructions (Roche, Switzerland). Results are expressed as mean±S.D. Results are represented as percentage of positive cells (mean±S.D) of three independent experiments.

[8] = tested on: prostate cancer PC-3 cells; test: BrdU proliferation assay, PC-3; type: cell-based, human; settings: 48 h
Procedure: as §3

[9] = tested on: bladder cancer 5637 cells; test: BrdU proliferation assay, 5637; type: cell-based, human; settings: 48 h
Procedure: as §3

[10] = tested on: HT-29 cells; test: Soft agar-colony formation assay, HT29; type: cell-based; settings: 28 days
Procedure: (§4) Soft agar-colony formation assay was performed on 12-well plates in triplicates at a density of 5×10^3 MDCK and MDCK-Hakai cells/well, or 12×10^3 HT29 cells/well. Cells were seeded in medium with 0.5% low-melting agarose over a layer with 0.75% low-melting agarose (Lonza Rockland, Me., USA). Cells were treated with the indicated inhibitors and DMSO was used as vehicle. Treatment was refreshed every 3 days and, after 21 days for MDCK and MDCK-Hakai cells or 28 days for HT29 cells, number of colonies were quantified. Quantification of five randomly-selected fields of each condition was photographed with a Nikon Eclipse-TI microscope (objective 4×). Experiments were conducted with three triplicates and were repeated three times. Data are represented as mean±SD.

[11] = tested on: Hakai-MDCK cells; test: Soft agar-colony formation assay, Hakai-MDCK; type: cell-based; settings: 21 days
Procedure: as §4

[12] = tested on: LoVo cells; test: Invasion assay, LoVo; type: cell-based; settings: treated 48 h before seeding
Procedure: (§5) For invasion assays, cells were treated with Hakin-1 or DMSO as vehicle for 48 h using 1% FBS during the last 24 hours. 3×10^5 MDCK, MDCK-Hakai or LoVo cells were seeded in a cell invasion chamber (Cell invasion assaykit, Chemicon International) containing medium with 2% FBS. After 72 hours for MDCK and MDCK-Hakai Invasive and 16 h for LoVo cells, invasive cells invaded that reach the lower chamber containing 30% FBS were fixed and stained with crystal violet (Sigma Aldrich, St Louis, Mo.) following the manufacturer's specifications. For migration assays, HT29 cells were cultured with Hakin-1 or DMSO as vehicle for 48 h, using medium without serum the last 24 h. In the cell migration chamber were seeded 3×10^5 HT29 cells (Cell migration kit, Millipore, Bedford, Mass.) containing medium without serum. After 16 h, migrated cells in the lower chamber containing serum with 30% FBS were stained with crystal violet and counted following the manufacturer's specifications. For both invasion and migration assays cells were counted in five fields photographed with an Olympus microscope using a 20× objective, experiments were performed in triplicates for each condition and the assays were repeated at least three times. Results are expressed as mean±SD.

[13] = tested on: Hakai-MDCK cells; test: Invasion assay, Hakai-MDCK; type: cell-based; settings: treated 48 h before seeding
Procedure: as §5

O=C(O)c1ccc(-n2nnnc2SCC(=O)c2ccc([N+](=O)[O-])cc2)cc1 [Hakin-1, 4-(5-{[2-(4-nitrophenyl)-2-oxoethyl]thiol}-1H-tetrazol-1-yl)benzoic acid]
ubiquitination when Hakai was not overexpressed [1]: did not affect ubiquitination | sensitivity to treatment (cell viability, MTT) [2]: more resistant | sensitivity to treatment (cell viability, MTT) [3]: more sensitive | mesenchymal phenotype (phase contrast) [4]: induction of an epithelial phenotype | EMT markers (western blotting) [5]: confirmed these results | E-cadherin levels at cell-cell contacts (immunofluorescence) [6]: significant increase E-cadherin levels at cell-cell contacts | cell proliferation (BrdU) [7]: inhibits cell proliferation | cell proliferation (BrdU) [8]: inhibits cell proliferation | cell proliferation (BrdU) [9]: inhibits cell proliferation | colony formation (soft agar) [10]: robust inhibition of colony formation | colony formation (soft agar) [11]: robust inhibition of colony formation | cell invasion [12]: strongly reduced cell invasion | cell invasion [13]: decreased cell invasion
